Patent EP1068346B1, “NUCLEOTIDE ACTIVATED DISACCHARIDES AND OLIGOSACCHARIDES AND METHOD FOR THE PRODUCTION THEREOF” (Forschungszentrum Jülich GmbH, priority 1998, dated 1999)

Type: physicochemical
Method: Insgesamt wurden 4.21 mg UDP-LacNAc isoliert (Gesamtausbeute: 5.2%). Die Substanz ist mindestens 6 Monate bei -20°C stabil. UDP-LacNAc wurde durch NMR-Spektroskopie und Massenspektrometrie charakterisiert. (Fig.1-4)

With Gal(β1-4)GlcNAc(α1-UDP [UDP-LacNAc] as the substance, how does the stabil read?
The stabil was no less than 6 Monate.
